Data published in patent US20150306081A1, “Chemotherapy for Drug-Resistant Cancer Cells” (THE UNIVERSITY OF SYDNEY, priority 2012, published 2015).

Experiments:
[1] = test system: non-Pgp expressing KB31 cells; test: MTT proliferation assay, KB31 cells; assay type: cell-based, Human; details: Val 1 μM, Ela 0.1 μM, 72 h
KBV1 cells = test: MTT cytotoxicity after transient knockdown of Pgp (MDR1 siRNA) in KBV1 cells; assay type: cell-based, Human; details: Pgp siRNA vs. Scr siRNA, 72 h
Method: The effect of anti-cancer agents on cellular proliferation was examined using the MTT [3-(4,5-dimethylthiazol-2-yl)-2,5-diphenyl tetrazolium] method. In this assay, 3×10^3 cells/well were seeded in 96-well plates in 100 μL of media. The next day, serially diluted drugs of interest were added. […] The cells were incubated at 37° C. in a humidified atmosphere containing 5% CO2 and 95% air for 72 h. After this incubation, 10 μL of MIT (5 mg/mL) was added to each well and the incubation continued at 37° C. for 2 h. After solubilization of the cells with 100 μL of 10% SDS-50% isobutanol in 10 mM HCl, the plates were read at 570 nm using a scanning multi-well spectrophotometer (Victor™ Multilabel Counter plate reader; Perkin Elmer, Australia). Results were analyzed to calculate the concentration of chelator or complex necessary to reduce the absorbance to 50% (IC50) of the control.
For all siRNA treatments against MDR1 (MDR1-siRNA; Cat #: 4123, Life Technologies), a siRNAlipofectamine mixture (50 nM MDR1 siRNA and 1/400 lipofectamine 2000) was added to the cells (at 30% confluency) and incubated for 72 h/37° C. prior to further experimentation. The effectiveness of Pgp knockdown was confirmed using western blot and also assessing DOX cytotoxicity via the MTT assay. As a control, scrambled siRNA (Scr siRNA; Life Technologies) was used at the same concentration as MDR1 siRNA.

Pgp [2] = target: T1, Pgp (Homo sapiens, UniProt P08183); test: Pgp-ATPase activity assay (Pgp-Glo); details: 40 min
Method: The ATPase activities of Pgp were determined using Pgp-enriched membranes and a luminescent ATP detection kit (Pgp-Glo Assay Kit, Promega, USA) according to the manufacturer's instructions. Briefly, Pgp membranes (0.5 mg/mL) and Mg(II)-ATP (5 mM) were incubated in the absence or presence of sodium orthovanadate (100 μM) for 40 min/37° C. and ATP detected as a luciferase-generated luminescent signal. Basal Pgp-ATPase activities were determined as the difference between the ATP hydrolysis in the presence or absence of sodium orthovanadate. Verapamil-stimulated Pgp-ATPase activity was measured in the presence of the Pgp control substrate, verapamil (200 μM).
Test substrates (Dp44mT and Bp4eT) of interest were dissolved in dimethyl sulfoxide. The final concentration of DMSO in the assay medium was less than 1%.
The Pgp Glo™ ATPase assay (Promega, Madison, Wis.) was used to assess if Dp44mT and Bp4eT are substrates of Pgp. The ATPase assay measures the Pgp-mediated ATPase activity of Pgp by quantitating ATP consumption in the presence of the compounds of interest after incubation with purified membrane proteins containing high levels of Pgp. […] The basal ATPase activity of Pgp is compared to the ATPase activity stimulated or inhibited by the compounds of interest.

[3] = test system: Pgp-expressing KBV1 cells; test: Uptake of radio-labeled drug, KBV1 cells; assay type: cell-based, Human
Method: Cells were then washed on ice three times with ice-cold PBS and collected for analysis. Drug uptake was calculated as the number of drug molecules/cell. […] For studies using lysosomotropic agents, cells were pre-incubated with NH4Cl (5 mM), CLQ (100 μM) or MA (100 μM) for 30 min/37° C. prior to ^14C-Dp44mT uptake. […] For efflux assays, the same labeling procedure was conducted as in the uptake assay. […] After this procedure, the overlying media was removed using a Pasteur pipette and then placed in a counting vial. The cells were removed from the plate in 1 mL of PBS and then dispensed into a separate counting vial.

[4] = test system: non-Pgp expressing KB31 cells; test: Uptake of radio-labeled drug, KB31 cells; assay type: cell-based, Human
Method: (§1) For the uptake assay, each 35 mm culture dish containing 5×10^5 cells was incubated with ^14C-doxorubicin, ^3H-vinblastine or ^14C-Dp44mT (all at 1 μCi) for 30 min/37° C. Cells were then washed on ice three times with ice-cold PBS and collected for analysis. Drug uptake was calculated as the number of drug molecules/cell. […] For studies using lysosomotropic agents, cells were pre-incubated with NH4Cl (5 mM), CLQ (100 μM) or MA (100 μM) for 30 min/37° C. prior to ^14C-Dp44mT uptake. […] For efflux assays, the same labeling procedure was conducted as in the uptake assay. […] After this procedure, the overlying media was removed using a Pasteur pipette and then placed in a counting vial. The cells were removed from the plate in 1 mL of PBS and then dispensed into a separate counting vial. The radiolabeled-drug efflux was calculated as a percentage of the total drug uptake by the cells found at zero time.

2008 cells = test: Uptake of 14C-Dp44mT, 2008 cells; assay type: cell-based; details: NH4Cl, MA or CLQ pre-incubation
Method: as §1

Pgp [5] = target: T1, Pgp; test: Rhodamine 123 accumulation assay, KBV1 cells; assay type: cell-based; details: 0.1 μM or above
Method: (§2) Cells were then harvested and resuspended in ice-cold PBS and kept on ice until flow cytometric analysis (see below).
(§3) The dyes, Rh123 and acridine orange were detected with the FACS Canto flow cytometer (BD Biosciences) and 10,000 events were acquired for every sample. Data analysis was performed using FlowJo software, version 7.5.5 (Tree Star Inc., Ashland, OR).

[6] = test system: non-Pgp expressing KB31 cells; test: Rhodamine 123 accumulation assay, KB31 cells; assay type: cell-based, Human; details: increased concentrations
Method: as §2, §3

[7] = Redox studies: oxidation of H2DCF, cell-free; details: acetate buffer pH 5, cysteine, H2O2, over 12 min
Method: These studies were conducted in an acetate buffer (150 mM; pH 5) containing cysteine (100 μM) to mimic lysosomal conditions. In these experiments, hydrogen peroxide (100 μM) was added to initiate ROS generation.

T1 sequence (P08183 whole entry): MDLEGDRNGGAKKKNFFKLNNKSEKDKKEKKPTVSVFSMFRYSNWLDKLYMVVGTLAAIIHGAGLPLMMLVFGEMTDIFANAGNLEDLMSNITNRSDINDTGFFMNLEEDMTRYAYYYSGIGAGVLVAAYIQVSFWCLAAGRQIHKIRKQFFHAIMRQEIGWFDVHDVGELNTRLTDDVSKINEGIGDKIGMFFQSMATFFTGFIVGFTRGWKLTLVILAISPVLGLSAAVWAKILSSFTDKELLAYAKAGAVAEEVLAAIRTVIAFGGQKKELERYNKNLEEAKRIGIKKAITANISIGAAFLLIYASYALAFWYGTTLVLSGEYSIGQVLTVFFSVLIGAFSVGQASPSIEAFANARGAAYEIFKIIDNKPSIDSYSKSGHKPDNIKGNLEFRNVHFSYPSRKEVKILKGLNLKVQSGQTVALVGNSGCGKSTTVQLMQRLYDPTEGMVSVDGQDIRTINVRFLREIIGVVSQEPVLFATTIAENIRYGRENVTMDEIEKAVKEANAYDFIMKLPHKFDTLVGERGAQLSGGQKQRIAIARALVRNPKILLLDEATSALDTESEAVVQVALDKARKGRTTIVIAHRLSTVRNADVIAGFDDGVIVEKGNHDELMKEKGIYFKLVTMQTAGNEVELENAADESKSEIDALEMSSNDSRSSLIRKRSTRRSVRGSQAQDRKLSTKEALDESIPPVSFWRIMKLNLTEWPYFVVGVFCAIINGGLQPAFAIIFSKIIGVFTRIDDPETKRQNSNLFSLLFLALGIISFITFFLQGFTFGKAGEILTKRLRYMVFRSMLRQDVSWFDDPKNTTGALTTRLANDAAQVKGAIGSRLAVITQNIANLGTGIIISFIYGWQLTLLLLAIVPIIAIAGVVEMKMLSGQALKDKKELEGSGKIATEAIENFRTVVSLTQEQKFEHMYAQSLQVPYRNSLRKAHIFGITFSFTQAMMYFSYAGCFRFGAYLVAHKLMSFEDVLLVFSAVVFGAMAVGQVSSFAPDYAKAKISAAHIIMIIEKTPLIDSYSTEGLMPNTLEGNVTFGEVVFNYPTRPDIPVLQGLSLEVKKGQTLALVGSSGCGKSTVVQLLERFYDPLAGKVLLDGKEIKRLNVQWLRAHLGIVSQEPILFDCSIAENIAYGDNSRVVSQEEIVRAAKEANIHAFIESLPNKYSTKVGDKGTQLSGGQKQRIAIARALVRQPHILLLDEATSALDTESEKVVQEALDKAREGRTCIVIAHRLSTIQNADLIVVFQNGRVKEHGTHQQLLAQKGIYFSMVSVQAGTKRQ

Compound: CN(C)C(=S)NN=C(c1ccccn1)c1ccccn1 [Dp44mT, di-2-pyridylketone 4,4-dimethyl-3-thiosemicarbazone]
- change of cytotoxicity in presence of Pgp inhibitors Val or Ela [1]: did not significantly alter their cytotoxicity
- increase of IC50 by knockdown of Pgp (KBV1 cells): 10 fold
- stimulation of basal catalytic (ATPase) activity of Pgp (Pgp [2]): 3- to 8 fold
- accumulation after pre-treatment with lysosomotropic agents ([3]; KBV1 cells, NH4Cl, MA or CLQ pre-incubation 30 min/37° C.): significantly (p<0.001) decreased
- effect of Pgp inhibitors Val and Ela on uptake ([3]; KBV1 cells, Val 1 μM or Ela 0.1 μM pre-incubation, versus control): significantly (p<0.001) increased the uptake
- cellular accumulation in KBV1 cells relative to KB31 cells ([3]; control groups, 1 μCi): significantly (p<0.001) less
- accumulation after pre-treatment with lysosomotropic agents ([4]; NH4Cl, MA or CLQ pre-incubation): did not significantly affect
- effect of Pgp inhibitors Val and Ela on uptake ([4]; Val 1 μM or Ela 0.1 μM pre-incubation, versus control): did not significantly alter radiolabel uptake
- accumulation after pre-treatment with lysosomotropic agents (2008 cells): did not significantly affect
- increased accumulation of Rh123 (Pgp [5]): up to two fold
- effect on Rh123 accumulation [6]: did not significantly affect Rh123 accumulation
- redox activity (H2DCF oxidation) [7]: no activity
